No end group written: not given here.
How the values were obtained:
A. fumigatus = assay: Aspergillosis in experimental HSCT after adoptive transfer of fungus-pulsed DCs; assay type: in vivo, mouse
Experimental: Human peripheral blood mononuclear cells were obtained from healthy donors and seven recipients of T-cell depleted haploidentical HSCT, upon written informed consent. Donor typing, engraftment and GVHD were assessed as described (Blood. 2005; 106; 4397-4406). Experimental HSCT model Lethally irradiated (8 Gy) C57BL6 mice were infused with T cell-depleted bone marrow cells from BALB/c mice (Blood. 2003; 102:3807-3814). For GVHD, purified donor CD3+ T splenocytes were added to the graft (Science. 2002; 295:2097-2100). Individual mice were graded weekly from 0-2 for each GVHD criterion (see legend to FIG. 3) without knowledge of treatment group.
The strain of A. fumigatus, the culture conditions and infection were as described in Blood. 2004; 103:4232-4239. Mice were anesthetized with 2.5% avertin (Sigma Chemical Co, St. Louis, Mo.). Quantification of fungal growth in the lungs was done by the chitin assay and results are expressed as micrograms of glucosamine per pair of lungs, and PAS staining was done as described in Blood. 2004; 103:4232-4239.
Mice received twice intraperitoneal injections of DCs, at weekly interval, starting a day after HSCT and infected a week after the last DC administration. Three days later, lung homogenates, CD4+ T cells (>98% on FACS analysis), CD4+CD25− (>98%) or CD4+CD25+ (>82%) purified with the specific Miltenyi Biotec isolation kits were assessed for pattern of pro- and anti-inflammatory (TNF-a/IL-10 in lung homogenates), Th1 (IFN-γ) or Th2 (IL-4) cytokine production by CD4+ cells stimulated with Aspergillus-pulsed DCs (Blood. 2003; 102:3807-3814) frequency of CD25+ IL-10^+ TGF-β+ T reg cells, lymphoproliferation and gene expression by RT-PCR. For proliferation, TLN CD4+ T lymphocytes were plated (10^5 cells/well) with 10^5 cells/well irradiated allogeneic splenocytes or autologous spDCs pulsed with conidia or 10 μg/mL Con A for five days before H^3-thymidine labeling.
Lethally irradiated C57BL/6 mice received=2×10^6 T cell-depleted allogeneic bone marrow cells from BALB/c mice 2 wk before the intratracheal injection of 2×10^8/80 μl saline Aspergillus conidia. One and seven days after transplantation, mice received Aspergillus-pulsed GM- or FL-DCs grown in Thymosin alpha 1, intraperitoneally.
Resistance to infection was assessed in terms of MST (median survival time in days) and fungal growth in the lung ([…] glucosamine content, bars indicating standard errors) 3 days after infection or at the time of death (A). […] The degree of systemic GVHD was assessed by a scoring system that sums changes in five clinical parameters: weight loss, posture (hunching), activity, fur texture, and skin integrity (maximum index=10). […]

CD4+ T cell clones = assay: Aspergillus-specific or alloreactive human T cell clones responding to DCs; assay type: cell-based; details: healthy donors or transplanted patients
Experimental: Aspergillus-specific human CD4+ T cell clones were generated from peripheral blood CD4+CD45RA+ T cells added at limiting dilution concentrations to irradiated (20 Gy) feeder autologous peripheral blood cells and stimulated with conidia-pulsed DCs or allogeneic DCs (Blood. 2005; 106:4397-4406). Growing clones were assessed for specificity against fungus-pulsed DCs, allogeneic DCs, autologous irradiated cells (as a negative control) and 0.5% phytohemoagglutinin (as a positive control) by H^3-thymidine (Amersham Biosciences, Little Chalfont, UK) labeling or cytokine content in supernatants 2 days later (Blood. 2005; 106:4397-4406).
(E) Frequency of Aspergillus-specific or alloreactive T cell clones responding to the different types of fungus-pulsed DCs or unpulsed DCs, respectively, from healthy donors or transplanted patients. Growing clones were assessed for specificity after 2 days of stimulation with DCs. (*) p<0.05, GM-DCs versus peripheral blood cells (−). (**) P<0.05, HSCT-DCs versus all other DCs. nd, not done.

[1] = system: peripheral CD14+ cells (GM-DCs, FL-DCs); assay: Human DC generation from peripheral CD14+ cells, surface expression; assay type: cell-based
Source text: GM-DCs or FL-DCs were obtained from purified CD14+ monocytes from healthy donors or transplanted patients (1 month post-HSCT) cultured in Iscove's modified medium for 7-9 days, in the presence of rGM-CSF (Schering-Plough, Milan, Italy) and rIL-4 (Peprotech, Inalco, Milan, Italy) or FLT3-L (Immunex Corporation, Seattle, Wash.) (Blood. 2004; 103:4232-4239). DC recovery was between 20-30% reduced in cultures from transplanted patients. Murine GM-DCs or FL-DCs were obtained from bone marrow cells for 7-9 days, as described (Blood. 2004; 103:4232-4239). Thymosin alpha 1 and sThymosin alpha 1 were added to the cultures at 20 ng/mL. DCs (>99% CD11c+ consisting of 90-95% CD8-, 5-10% CD8+, and 1-5% B220+ cells) were purified from spleens (spDCs) by magnetic-activated sorting using CD11c MicroBeads and MidiMacs (Miltenyi Biotech). DC populations were further separated into CD8−, CD8+ and B220+ fractions by means of CD8 or B220 MicroBeads (Miltenyi Biotech). DCs were pulsed in serum-free Iscove medium for 24 hours with live unopsonized Aspergillus conidia or Zymosan from Saccharomyces cerevisiae (Sigma) or CpG-ODN 2006 as described.7 Phagocytosis was done as described (Blood. 2004; 103:4232-4239). Photographs were taken using a high Resolution Microscopy Color Camera AxioCam, using the AxioVision Software Rel. 3.1 (Carl Zeiss, Milan, Italy).
DCs were analyzed for antigen expression with a FACScan flow cytofluorometer (Becton Dickinson, Mountain View, Calif.) equipped with CELLQuest™ software and using conjugated mAbs from PharMingen (Blood. 2004; 103:4232-4239).
(A) Surface expression of CD11c, CD1a and CD123 on DCs derived from peripheral CD14+ cells of different donors with GM-CSF/IL-4 (GM-DCs) or FLT3L (FL-DCs) in the presence of Thymosin alpha 1. Percent of positive cells is indicated.

[2] = GM-CSF/IL-4-treated cultures, healthy donors

Thymosin alpha 1: naturally occurring thymic peptide; supplied as purified, endotoxin-free sterile lyophilized acetylated polypeptide from SciClone Pharmaceuticals (Ac-SDAAVDTSSEITTKDLKEKKEVVEEAEN; UniProt P06454 2-29, looked up)
survival to infection in the presence of donor T cells (A. fumigatus; donor T cells plus Thymosin alpha 1-treated GM-DCs): survived infection | local inflammatory cell recruitment and reaction in the lungs (histopathology) (A. fumigatus; mice infused with Thymosin alpha 1-treated GM-DCs, 3 days after infection): few healing infiltrates of inflammatory cells with no evidence of bronchial wall damage and inflammatory response and low | vaccinating potential of FL-DCs (A. fumigatus; transfer of Thymosin alpha 1-treated FL-DCs): would not affect the vaccinating potential of FL-DCs | protection from aspergillosis (survival, fungal growth) (A. fumigatus; transfer of Thymosin alpha 1-treated GM-DCs, intraperitoneally): complete protection | ability of DCs to activate fungus- or alloantigen-specific T cell reactivity (CD4+ T cell clones): modified neither the antigen-specific T cell responses induced by DCs nor the allostimulatory capacity | mobilization of CD123+ pDCs and CD1a+ DCs in FLT3-L cultures ([1]; FLT3-L cultures): No such effects were observed | mobilization of CD1a+DCs [1, 2]: decreasing that of CD1a+DCs | mobilization of CD123+ pDCs [1, 2]: promoted the mobilization of CD123+ pDCs
